EPA's ToxValDB 9.5 (doi:10.2903/j.efsa.2012.2860)

Columns and labels:
[1] = tested on: Colinus virginianus; conditions: for LD50: acute, oral, mortality
[2] = tested on: Rattus norvegicus
[3] = tested on: Canidae; conditions: chronic; duration: 1 years; oral; Dog Other; histopathology: nonneoplastic
[4] = tested on: Anas platyrhynchos; conditions: short-term; oral; feed; mortality

## Cc1nn(C)c(F)c1C(=O)Nc1ccccc1C(C)CC(C)C (stereo not given) [Penflufen]
[1]; diet
  LD50: > 1700 mg/kg-day
[1]
  LD50: > 4000 mg/kg-day
[1]; reproduction developmental
  NOEL: 96 mg/kg-day
[2]; acute, oral, F, clinical signs
  NOAEL: 50 mg/kg-day
[2]; acute, oral, mortality
  LD50: > 2000 mg/kg-day
[2]; chronic, duration: 2 years, histopathology: nonneoplastic
  NOAEL: 4 mg/kg-day
[2]; reproduction developmental, F, reproduction
  NOAEL: 71 mg/kg-day
[2]; reproduction developmental, M, reproduction
  NOAEL: 58 mg/kg-day
[3]
  NOAEL: 7.7 mg/kg-day
[4]
  LD50: > 2210 mg/kg-day
